Non-standard residues stand in square brackets, D forms with d. Residues, ends and D or L forms follow the SMILES beside them. *: point of attachment. Phenylacetyl(2,3,4,5,6-F5) = O=C(Cc1c(F)c(F)c(F)c(F)c1F)*; Phe(F5) = N[C@@H](Cc1c(F)c(F)c(F)c(F)c1F)C(=O)O; hArg = N=C(N)NCCCC[C@H](N)C(=O)O; 12Ado = NCCCCCCCCCCCC(=O)O; Nle = CCCC[C@H](N)C(=O)O; Orn = NCCC[C@H](N)C(=O)O; Abu = CC[C@H](N)C(=O)O; PhAc = O=C(Cc1ccccc1)*
Columns and labels:
HCC827 cells = assay: In vitro cell viability, lung cancer HCC827; type: cell-based, human; settings: 5 μM, 72 h; for Relative inhibitory potency, Lung HCC827: relative to MIA602 = 1, Table 3A
Summary of the method: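 Cells grown to ~60% confluence and serum-starved 24 h in 0.5% FBS, then exposed to antagonists at 5 μM (some at 2 μM) for 72 h in quintuplicate, with medium replaced every 48 h. Viability read by CellTiter 96 AQueous One (MTS). Values are inhibition relative to MIA602.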

NCI-N87 xenograft = assay: Xenograft tumor growth in nude mice, stomach cancer N87; type: in vivo; settings: Panel D, 10 weeks
Method: The peptides' activity was compared with GHRH antagonist MIA-602. All statistical analyzses were performed from comparing GHRA antagonists to non-treated tumor (control).
Peptides and chemicals. GHRH antagonists MIA-602 and AVR-GHRH antagonists (see Table 2 above) were synthesized by solid phase methods and purified by HPLC. The peptides were dissolved in DMSO and further diluted in 10% 1, 2-propanediol. The final concentration of peptides was 50 µg/ml in 10% 1, 2-propanediol containing 0.1% of DMSO.
(§1) Cell culture. Human cancer cell lines including pancreatic (PANC-1 and CFPAC-1), lung (HCC827 and H460), stomach (NCI-N87), prostate (PC3), brest (MX-1 and HCC-1806), colorectal (HT-29), and ovarian (SK-OV-3 and OVCAR-3) were obtained from the American Type Culture Collection (ATCC) and cultured at 37° C. in a humidified 95% air/5% CO2 atmosphere in the medium recommended by ATCC.
Xenograft models of human cancers in nude mice. Female athymic (NCr nu/nu) nude mice, 5-to 6-weeks-old, obtained from the Envigo labs (Tampa, FL), were housed in laminar airflow cabinets under pathogen-free conditions with a 12-h light/12-h dark schedule, and were fed autoclaved standard chow and water. To generate mice with xenografted tumors, tumor xenografts were initiated by subcutaneous (s.c.) injection of […] human cancer cells into female nude mice. After about 4 weeks the resulting tumors were dissected and collected after removing necrosis tissues. The tumors were then cut into particles with size of ˜3 mm3 and transplanted s.c. by trocar needle into experimental animals. When tumors grew to the size of 50-60 mm3 (by volume), […] of 5 μg of GHRH antagonists MIA-602 or AVR-compounds (2-10 μg as indicated), or vehicle solutions (0.1% DMSO in 10% 1, 2-propanediol) respectively. Tumor sizes were measured weekly.
Statistical analysis. One-way ANOVA followed by Bonferroni comparison were performed. Data are expressed as Mean±SEM. To determine statistical significance between animal groups, two-tailed Student's t-test was conducted. Differences were considered significant when p<0.05.
Results. […] FIG. 1A-N represents in vivo inhibition of tumor growth during the treatment with GHRH antagonist MIA-602 and selected AVR antagonists in nude mice xenografted with various human tumors including pancreatic cancer PANC-1 (FIG. 1A) and CFPAC-1 (FIG. 1I); lung cancer HCC827 (FIGS. 1B, C) and H460 (FIG. 1H); stomach cancer N87 (FIGS. 1D-F); colon cancer HT-29 (FIG. 1G); breast cancer MX-1 and HCC-1806 (FIGS. 1J, K); ovarian cancer SK-OV-3 and OVACAR-3 (FIGS. 1L, M) and prostate cancer PC3 (FIG. 1N). See also Table 5.

KATOIII cells = assay: In vitro cell viability, stomach cancer KATOIII; type: cell-based, human; settings: 5 μM, 72 h; relative to MIA602 = 1; Table 3A
Summary of the method: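 Cells grown to ~60% confluence, starved 24 h in 0.5% FBS medium, then exposed to antagonists at 1, 2.5 or 5 μM or 0.1% DMSO vehicle for 72 h, in quintuplicate with medium renewed every 48 h. Viability by CellTiter 96 AQueous One; reported as inhibitory potency relative to MIA602.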

HCC1806 cells = assay: In vitro cell viability, breast cancer HCC1806; type: cell-based, human; settings: 5 μM, 72 h
Method: The inhibitory effects of the various synthesized GHRH antagonists were tested in cell proliferation assays in various human cancer cell lines including stomach cancer (KATOIII, N87), colon cancer (HT-29), urothelial cancer (J82, RT4), pancreatic cancer (PANC-1, CFPAC-1), prostatic cancer (PC3), breast cancer (MX-1, HCC1806), ovarian cancer (SK-OV-3, OVCAR-3) and lung cancer (HCC827, H460).
as §1, with “(NCI-N87 and KATOIII), urothelial (J82, RT4), prostatic” for “(NCI-N87), prostate”, “breast” for “brest”, “HCC 1806),” for “HCC-1806),”
In vitro cell viability. Cell viability was analyzed as follows: cancer cells including pancreatic (PANC-1 and CFPAC-1), lung (HCC827 and H460), stomach (NCI-N87 and KATOIII), urothelial (J82, RT4), prostatic (PC3) and breast (MX-1 and HCC 1806), colorectal (HT-29) and ovarian (SK-OV-3 and OVCAR-3) were grown on 96 well plates to ˜60% confluence, the cells were starved for 24 h in culture medium containing 0.5% FBS. Cells were then treated with GHRH antagonists MIA602 AVR compounds at concentrations of 1, 2.5 or 5 μM, or vehicle (0.1% DMSO) in quintuplicates for 72 hours. The medium was replaced every 48 hours. Cell viability was measured using CellTiter 96 aqueous one solution kit (Promega). Inhibitory effects of tested AVR compounds in comparison to that of MIA602 are presented as inhibitory potency.
Inhibitory effects of selected AVR compounds in comparison to that of MIA602 are presented as inhibitory potency (e.g., percentage of inhibition). […] The cell lines tested including lung cancer HCC827 (FIG. 2A), pancreatic cancer CFPAC-1 (FIG. 2B), stomach cancer N87 (FIG. 2C), colon cancer HT-29 (FIG. 2D), breast cancers MX-1 and HCC1806 (FIGS. 2E, F). Based on the results of cell proliferation assay after cancer cells were treated with antagonist at concentration of 5 μM for 72H, the relative inhibitory potency of AVR antagonists in comparison to MIA-602 is summarized in Table 3 A and B. Over 60 AVR compounds were tested in 12 cancer cell lines.
Based on the results of cell proliferation assay after cancer cells were treated with antagonist at concentration of 5 µM for 72H, * at concentration of 2 µM for 72 H.

Row | Structure (SMILES) | Relative inhibitory potency, Lung HCC827 (HCC827 cells) | Tumor Growth % (NCI-N87 xenograft; 2 μg/day s.c.) [%] | Relative inhibitory potency, Stomach KATOIII (KATOIII cells) | In vitro relative inhibitory potency in comparison to MIA-602, HCC827 (HCC827 cells; Table 3B) | % Inhibition (NCI-N87 xenograft; 2 μg/day s.c., vs control) [%] | Tumor Growth % (NCI-N87 xenograft; 5 μg/day s.c.) [%] | In vitro relative inhibitory potency in comparison to MIA-602, HCC-1806 (HCC1806 cells; Table 3B) | Relative inhibitory potency, Breast HCC1806 (HCC1806 cells; relative to MIA602 = 1, Table 3A)
1 | CCCC[C@H](NC(=O)[C@@H](NC(=O)[C@H](CC(=O)O)NC(=O)[C@H](CCC(N)=O)NC(=O)[C@H](CC(C)C)NC(=O)[C@H](CC(C)C)NC(=O)[C@H](CCCCN)NC(=O)[C@H](CCCNC(=N)N)NC(=O)[C@H](C)NC(=O)[C@H](CO)NC(=O)[C@H](CC(C)C)NC(=O)[C@H](CCC(N)=O)NC(=O)[C@H](CC)NC(=O)[C@H](CC(C)C)NC(=O)[C@@H](NC(=O)[C@H](CCCCN)NC(=O)[C@H](CCCNC(=N)N)NC(=O)[C@H](Cc1ccc(OC)cc1)NC(=O)[C@H](CCCCNC(=N)N)NC(=O)[C@H](C)NC(=O)[C@@H](NC(=O)[C@H](Cc1c(F)c(F)c(F)c(F)c1F)NC(=O)[C@@H](NC(=O)[C@H](C)NC(=O)[C@H](CC(=O)O)NC(=O)[C@@H](CCCNC(=N)N)NC(=O)[C@H](Cc1ccc(O)cc1)NC(=O)CCCCCCCCCCCNC(=O)Cc1c(F)c(F)c(F)c(F)c1F)[C@@H](C)CC)[C@@H](C)O)C(C)C)[C@@H](C)CC)C(=O)N[C@H](CCCNC(=N)N)C(=O)N[C@@H](CCCCNC(=N)N)C(=O)NC [AVR-235] ({Phenylacetyl(2,3,4,5,6-F5)-12Ado}-Y[dR]DAI[Phe(F5)]TA[hArg]Y(Me)RKVL[Abu]QLSARKLLQDI[Nle][dR][hArg]-NHMe) | 1.506 | 558.60 | 1.220 |  |  |  |  | 
2 | CCCC[C@H](NC(=O)[C@@H](NC(=O)[C@H](CC(=O)O)NC(=O)[C@H](CCC(N)=O)NC(=O)[C@H](CC(C)C)NC(=O)[C@H](CC(C)C)NC(=O)[C@H](CCCN)NC(=O)[C@H](Cc1c[nH]cn1)NC(=O)[C@H](C)NC(=O)[C@H](CO)NC(=O)[C@H](CC(C)C)NC(=O)[C@H](CCC(N)=O)NC(=O)[C@H](CC)NC(=O)[C@H](CC(C)C)NC(=O)[C@@H](NC(=O)[C@H](CCCN)NC(=O)[C@H](Cc1c[nH]cn1)NC(=O)[C@H](Cc1ccc(OC)cc1)NC(=O)[C@H](CCCCNC(=N)N)NC(=O)[C@H](C)NC(=O)[C@@H](NC(=O)[C@H](Cc1c(F)c(F)c(F)c(F)c1F)NC(=O)[C@@H](NC(=O)[C@H](C)NC(=O)[C@H](CC(=O)O)NC(=O)[C@@H](CCCNC(=N)N)NC(=O)[C@H](Cc1ccc(O)cc1)NC(=O)CCCCCCCCCCCNC(=O)Cc1ccccc1)[C@@H](C)CC)[C@@H](C)O)C(C)C)[C@@H](C)CC)C(=O)N[C@H](CCCNC(=N)N)C(=O)N[C@@H](CCCCNC(=N)N)C(N)=O [MIA-602, PhAC-Ada, Tyr D-Arg, Asp, Ala, Ile, 5FPhe, Thr, Ala, Har, Tyr(Me), His, Orn, Val, Leu, Abu, Gin, Leu, Ser, Ala, His, Orn, Leu, Leu, Gin, Asp, Ile, Nle, D-Arg, Har NH2, reference compound] ({PhAc-12Ado}-Y[dR]DAI[Phe(F5)]TA[hArg]Y(Me)H[Orn]VL[Abu]QLSAH[Orn]LLQDI[Nle][dR][hArg]-NH2) | 1 | 1065.00 | 1 | 1 | 13.0 | 767.00 | 1 | 1

Reference: patent US11993640B2, “Treating inflammatory lung disease” (United States Government as represented by the Department …, priority 2019, dated 2024)
